# Measured values: paper PMC8427973, “Regulation of the HTRA2 Protease Activity by an Inhibitory Antibody-Derived Peptide Ligand and the Influence on HTRA2-Specific Protein Interaction Networks in Retinal Tissues” (Biomedicines, 2021)
# Tested on: recombinant 6xHis-tag HTRA2 and its protein interaction partners in homogenized porcine retina
# Experiment: Co-immunoprecipitation (Co-IP) of HTRA2 protein interaction partners, quantitative LC-MS/MS (iBAQ, volcano plot vs CTRL beads)
# Parameters: species or system house swine (Sus scrofa)
# Conditions: 2 µg HTRA2 + 10 µg compound, n = 3, vs CTRL beads
# Experimental: The retina extraction and homogenization were performed as already described in previous publications. The use of animal by-products of house swine for scientific research purposes was approved by the Kreisverwaltung Mainz-Bingen in Germany (Identification Code: DE 07 315 0006 21, approved on 13 January 2014). In brief, retinal tissues were extracted from freshly removed porcine eye bulbs (house swine, Sus scrofa domestica Linnaeus, n = 30) provided by the local slaughterhouses (Landmetzgerei Harth, Stadecken-Elsheim, Germany). Afterwards, the retinal tissues were homogenized in 2 mL screw cap microtubes filled with 1.4/2.8 mm ceramic beads and 1 mL Tissue Protein Extraction Reagent (T-PER, Thermo Fisher Scientific, Rockford, IL, USA) using a Percellys® 24 homogenizer (VWR International GmbH, Darmstadt, Germany). The homogenized retinal samples were then centrifuged at 14,000× g for 15 min at 4 °C. The protein-containing supernatant was exchanged in a 100 µL phosphate-buffered saline (PBS) using a 3 kDa Amicon® filtration unit (Millipore, Billerica, MA, USA) and, prior to this, was extensively washed in order to completely remove traces of the T-PER buffer. Afterwards, the samples were pooled and the protein concentration was determined using a Pierce Bicinchoninic Acid (BCA) Protein Assay Kit (Thermo Fisher Scientific, Rockford, IL, USA) according to the manufacturer’s protocol, which provided 5 mg aliquots for further analysis.
# The recombinant protein HTRA2 with a C-terminal 6xHis-tag motif (Novoprotein Scientific INC., Summit, NJ, USA) and 40 μL HisPurTM Ni-NTA magnetic beads (Thermo Fisher Scientific, Rockford, IL, USA) were spiked into 5 mg homogenized porcine retina. The experiment comprised of four groups: control homogenate (CTRL group), homogenate with 2 μg recombinant HTRA2 (HTRA2 group), homogenate with 2 μg recombinant HTRA2 and 10 μg UCF-101 (UCF-101 group), and homogenate with 2 μg recombinant HTRA2 and 10 μg synthetic CDR peptide (CDR group). The Co-IP of the recombinant HTRA2 and the enrichment of the respective interaction partners was performed with three independent biological replicates for each group (CTRL, HTRA2, UCF-101, and CDR group). After incubation at 4 °C overnight, the 6xHis-tagged protein HTRA2 with the bounded protein interaction partners (co-immunoprecipitation) was isolated with the previously added HisPurTM Ni-NTA magnetic beads (Thermo Fisher Scientific, Rockford, IL, USA) using a magnetic stand. Each bead group was washed twice with 400 μL PBS and the bounded HTRA2 including the protein interaction partners were eluted by pH shift. The protein concentration of each eluate fraction was determined as described above. Afterwards, 50 μg of each eluate fraction was evaporated using a speed vacuum concentrator (SpeedVac) (Eppendorf, Hamburg, Germany) for 45 min at 30 °C and was stored afterwards at −20 °C.
# The protein eluate fractions of each group (50 μg; n = 3 biological replicates per group) were separated by 1D SDS PAGE on 10-well NuPAGE® 12% Bis-Tris gels using NuPAGE™ MOPS SDS Running Buffer 20X (Thermo Fisher Scientific, Rockford, IL, USA). The 1D SDS PAGE was performed with the XCell SureLock^TM Mini-Cell Electrophoresis System (Thermo Fisher Scientific, Rockford, IL, USA) under denatured and reduced conditions, as already described in previous publications. The protein separation was performed for 2 h at 4 °C using 150 V, and then the gels were stained with the Novex Colloidal Blue Staining Kit (Thermo Fisher Scientific, Rockford, IL, USA) according to the manufacturer’s protocol. The next day, the gels were destained overnight and scanned using a DGP-9042 scanner (Brother Industries, Nagoya, Japan) at 600 dpi. In-gel trypsin digestion was performed as already described in previous publications. In brief, each protein lane was divided into 17 slices and was subsequently cut into small pieces. […]
sequence,measurement,setting,value
"ASGYTFTNYGLSWVR [CDR, synthetic peptide encoding a complementary-determining region 1 (CDR1) of polyclonal antibody molecules]",FGF2 (Fibroblast growth factor 2) as significant interaction partner of HTRA2,HTRA2 alone: -,√ (Proteins fulfilled filtering criteria (p < 0.01; log2 fold change > 1.5))
same,FTH1 (Ferritin heavy chain) as significant interaction partner of HTRA2,HTRA2 alone: -,√ (Proteins fulfilled filtering criteria (p < 0.01; log2 fold change > 1.5))
same,GTF2F2 (General transcription factor IIF subunit 2) as significant interaction partner of HTRA2,HTRA2 alone: -,- (Proteins failed to fulfill the filtering criteria (p > 0.01; log2 fold change < 1.5))
same,NAPG (Gamma-soluble NSF attachment protein) as significant interaction partner of HTRA2,HTRA2 alone: -,√ (Proteins fulfilled filtering criteria (p < 0.01; log2 fold change > 1.5))
same,PDZD11 (PDZ domain-containing protein 11) as significant interaction partner of HTRA2,HTRA2 alone: -,√ (Proteins fulfilled filtering criteria (p < 0.01; log2 fold change > 1.5))
same,PGRMC1 (Membrane-associated progesterone receptor component 1) as significant interaction partner of HTRA2,HTRA2 alone: -,- (Proteins failed to fulfill the filtering criteria (p > 0.01; log2 fold change < 1.5))
same,PLRG1 (Pleiotropic regulator 1) as significant interaction partner of HTRA2,HTRA2 alone: -,√ (Proteins fulfilled filtering criteria (p < 0.01; log2 fold change > 1.5))
same,"POLR2E (DNA-directed RNA polymerases I, II, and III subunit RPABC1) as significant interaction partner of HTRA2",HTRA2 alone: -,√ (Proteins fulfilled filtering criteria (p < 0.01; log2 fold change > 1.5))
same,PPA1 (Inorganic pyrophosphatase) as significant interaction partner of HTRA2,HTRA2 alone: -,- (Proteins failed to fulfill the filtering criteria (p > 0.01; log2 fold change < 1.5))
same,SFRP1 (Secreted frizzled-related protein 1) as significant interaction partner of HTRA2,HTRA2 alone: -,√ (Proteins fulfilled filtering criteria (p < 0.01; log2 fold change > 1.5))
same,TUBA1C (Tubulin alpha-1C chain) as significant interaction partner of HTRA2,HTRA2 alone: -,√ (Proteins fulfilled filtering criteria (p < 0.01; log2 fold change > 1.5))
same,UBE2N (Ubiquitin-conjugating enzyme E2 N) as significant interaction partner of HTRA2,HTRA2 alone: -,√ (Proteins fulfilled filtering criteria (p < 0.01; log2 fold change > 1.5))
same,CDC42 (Cell division control protein 42 homolog) as significant interaction partner of HTRA2,HTRA2 alone: n.d.,√ (Proteins fulfilled filtering criteria (p < 0.01; log2 fold change > 1.5))
same,COPE (Coatomer subunit epsilon) as significant interaction partner of HTRA2,HTRA2 alone: n.d.,- (Proteins failed to fulfill the filtering criteria (p > 0.01; log2 fold change < 1.5))
same,"MRPL2 (39S ribosomal protein L2, mitochondrial) as significant interaction partner of HTRA2",HTRA2 alone: n.d.,√ (Proteins fulfilled filtering criteria (p < 0.01; log2 fold change > 1.5))
same,SNX3 (Sorting nexin-3) as significant interaction partner of HTRA2,HTRA2 alone: n.d.,√ (Proteins fulfilled filtering criteria (p < 0.01; log2 fold change > 1.5))
same,SOWAHA (Ankyrin repeat domain-containing protein SOWAHA) as significant interaction partner of HTRA2,HTRA2 alone: n.d.,√ (Proteins fulfilled filtering criteria (p < 0.01; log2 fold change > 1.5))
same,TIMM13 (Mitochondrial import inner membrane translocase subunit Tim13) as significant interaction partner of HTRA2,HTRA2 alone: n.d.,√ (Proteins fulfilled filtering criteria (p < 0.01; log2 fold change > 1.5))
same,TUBB8 (Tubulin beta-8 chain) as significant interaction partner of HTRA2,HTRA2 alone: n.d.,√ (Proteins fulfilled filtering criteria (p < 0.01; log2 fold change > 1.5))
same,"AGPS (Alkyldihydroxyacetonephosphate synthase, peroxisomal) as significant interaction partner of HTRA2",HTRA2 alone: √,√ (Proteins fulfilled filtering criteria (p < 0.01; log2 fold change > 1.5))
same,ANK2 (Ankyrin-2) as significant interaction partner of HTRA2,HTRA2 alone: √,- (Proteins failed to fulfill the filtering criteria (p > 0.01; log2 fold change < 1.5))
same,AP2A1 (AP-2 complex subunit alpha-1) as significant interaction partner of HTRA2,HTRA2 alone: √,- (Proteins failed to fulfill the filtering criteria (p > 0.01; log2 fold change < 1.5))
same,AP3D1 (AP-3 complex subunit delta-1) as significant interaction partner of HTRA2,HTRA2 alone: √,- (Proteins failed to fulfill the filtering criteria (p > 0.01; log2 fold change < 1.5))
same,"AUH (Methylglutaconyl-CoA hydratase, mitochondrial) as significant interaction partner of HTRA2",HTRA2 alone: √,√ (Proteins fulfilled filtering criteria (p < 0.01; log2 fold change > 1.5))
same,"CS (Citrate synthase, mitochondrial) as significant interaction partner of HTRA2",HTRA2 alone: √,- (Proteins failed to fulfill the filtering criteria (p > 0.01; log2 fold change < 1.5))
same,CSTB (Cystatin-B) as significant interaction partner of HTRA2,HTRA2 alone: √,√ (Proteins fulfilled filtering criteria (p < 0.01; log2 fold change > 1.5))
same,"DNAJA3 (DnaJ homolog subfamily A member 3, mitochondrial) as significant interaction partner of HTRA2",HTRA2 alone: √,- (Proteins failed to fulfill the filtering criteria (p > 0.01; log2 fold change < 1.5))
same,DTD1 (D-aminoacyl-tRNA deacylase 1) as significant interaction partner of HTRA2,HTRA2 alone: √,- (Proteins failed to fulfill the filtering criteria (p > 0.01; log2 fold change < 1.5))
same,EIF2S3 (Eukaryotic translation initiation factor 2 subunit 3) as significant interaction partner of HTRA2,HTRA2 alone: √,- (Proteins failed to fulfill the filtering criteria (p > 0.01; log2 fold change < 1.5))
same,FAM30A (Putative uncharacterized protein FAM30A) as significant interaction partner of HTRA2,HTRA2 alone: √,- (Proteins failed to fulfill the filtering criteria (p > 0.01; log2 fold change < 1.5))
same,FLNA (Filamin-A) as significant interaction partner of HTRA2,HTRA2 alone: √,- (Proteins failed to fulfill the filtering criteria (p > 0.01; log2 fold change < 1.5))
same,GDI1 (Rab GDP dissociation inhibitor alpha) as significant interaction partner of HTRA2,HTRA2 alone: √,√ (Proteins fulfilled filtering criteria (p < 0.01; log2 fold change > 1.5))
same,GLO1 (Lactoylglutathione lyase) as significant interaction partner of HTRA2,HTRA2 alone: √,√ (Proteins fulfilled filtering criteria (p < 0.01; log2 fold change > 1.5))
same,GNL1 (Guanine nucleotide-binding protein-like 1) as significant interaction partner of HTRA2,HTRA2 alone: √,- (Proteins failed to fulfill the filtering criteria (p > 0.01; log2 fold change < 1.5))
same,"HAGH (Hydroxyacylglutathione hydrolase, mitochondrial) as significant interaction partner of HTRA2",HTRA2 alone: √,- (Proteins failed to fulfill the filtering criteria (p > 0.01; log2 fold change < 1.5))
same,"HTRA2 (Serine protease HTRA2, mitochondrial; target protein) enriched",HTRA2 alone: √,√ (Proteins fulfilled filtering criteria (p < 0.01; log2 fold change > 1.5))
same,HYOU1 (Hypoxia up-regulated protein 1) as significant interaction partner of HTRA2,HTRA2 alone: √,- (Proteins failed to fulfill the filtering criteria (p > 0.01; log2 fold change < 1.5))
same,MCTS1 (Malignant T-cell-amplified sequence 1) as significant interaction partner of HTRA2,HTRA2 alone: √,√ (Proteins fulfilled filtering criteria (p < 0.01; log2 fold change > 1.5))
same,"ME2 (NAD-dependent malic enzyme, mitochondrial) as significant interaction partner of HTRA2",HTRA2 alone: √,- (Proteins failed to fulfill the filtering criteria (p > 0.01; log2 fold change < 1.5))
same,NCKAP1 (Nck-associated protein 1) as significant interaction partner of HTRA2,HTRA2 alone: √,- (Proteins failed to fulfill the filtering criteria (p > 0.01; log2 fold change < 1.5))
same,PACS1 (Phosphofurin acidic cluster sorting protein 1) as significant interaction partner of HTRA2,HTRA2 alone: √,- (Proteins failed to fulfill the filtering criteria (p > 0.01; log2 fold change < 1.5))
same,POTEE (POTE ankyrin domain family member E) as significant interaction partner of HTRA2,HTRA2 alone: √,- (Proteins failed to fulfill the filtering criteria (p > 0.01; log2 fold change < 1.5))
same,PSMC1 (26S proteasome regulatory subunit 4) as significant interaction partner of HTRA2,HTRA2 alone: √,- (Proteins failed to fulfill the filtering criteria (p > 0.01; log2 fold change < 1.5))
same,PTGES3 (Prostaglandin E synthase 3) as significant interaction partner of HTRA2,HTRA2 alone: √,√ (Proteins fulfilled filtering criteria (p < 0.01; log2 fold change > 1.5))
same,RPS12 (40S ribosomal protein S12) as significant interaction partner of HTRA2,HTRA2 alone: √,- (Proteins failed to fulfill the filtering criteria (p > 0.01; log2 fold change < 1.5))
same,"SPTBN1 (Spectrin beta chain, non-erythrocytic 1) as significant interaction partner of HTRA2",HTRA2 alone: √,- (Proteins failed to fulfill the filtering criteria (p > 0.01; log2 fold change < 1.5))
same,UBE2V1 (Ubiquitin-conjugating enzyme E2 variant 1) as significant interaction partner of HTRA2,HTRA2 alone: √,√ (Proteins fulfilled filtering criteria (p < 0.01; log2 fold change > 1.5))
